According to ChEMBL document CHEMBL1126524, “Derivatives of quinuclidine as 5-HT3 receptor antagonists: influence of an additional carbonyl group on the recognition of chirality by the receptor” (Bioorg Med Chem Lett, 1993):

Columns and labels:
[1] = target: T1, Serotonin 3 (5-HT3) receptor (Rattus norvegicus, UniProt P35563+Q9JJ16); experiment: Binding affinity at 5-hydroxytryptamine 3 receptor in rat entorhinal cortex by [3H]BRL-43694 displacement.; assay type: tissue-based
T1 sequence (P35563 whole entry): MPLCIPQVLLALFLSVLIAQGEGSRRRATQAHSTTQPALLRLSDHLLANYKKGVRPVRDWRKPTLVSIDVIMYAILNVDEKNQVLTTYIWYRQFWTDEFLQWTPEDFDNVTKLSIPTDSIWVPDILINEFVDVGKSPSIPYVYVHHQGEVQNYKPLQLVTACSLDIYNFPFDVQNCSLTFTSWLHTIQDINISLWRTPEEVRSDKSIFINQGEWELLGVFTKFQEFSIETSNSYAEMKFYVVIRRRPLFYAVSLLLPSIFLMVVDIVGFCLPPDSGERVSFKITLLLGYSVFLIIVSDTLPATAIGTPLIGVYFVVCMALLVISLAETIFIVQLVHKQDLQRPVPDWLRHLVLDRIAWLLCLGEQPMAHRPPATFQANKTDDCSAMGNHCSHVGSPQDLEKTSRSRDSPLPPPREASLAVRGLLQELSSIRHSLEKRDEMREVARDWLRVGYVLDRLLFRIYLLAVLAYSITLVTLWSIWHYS
T1 sequence (Q9JJ16 whole entry): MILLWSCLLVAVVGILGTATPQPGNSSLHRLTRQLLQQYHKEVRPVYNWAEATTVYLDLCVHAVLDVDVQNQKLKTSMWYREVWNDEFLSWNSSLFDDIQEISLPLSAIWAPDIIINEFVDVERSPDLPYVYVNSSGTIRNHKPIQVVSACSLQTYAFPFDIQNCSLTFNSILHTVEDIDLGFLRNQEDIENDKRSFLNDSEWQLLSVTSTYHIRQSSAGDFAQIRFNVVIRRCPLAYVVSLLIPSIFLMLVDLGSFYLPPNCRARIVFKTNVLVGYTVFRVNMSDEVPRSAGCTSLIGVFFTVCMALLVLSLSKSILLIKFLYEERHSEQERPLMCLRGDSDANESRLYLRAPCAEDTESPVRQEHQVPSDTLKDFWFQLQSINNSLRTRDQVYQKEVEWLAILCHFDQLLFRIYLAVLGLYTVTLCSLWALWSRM

[2] = target: Serotonin 3 (5-HT3) receptor (Rattus norvegicus) (UniProt P35563+Q9JJ16); experiment: Compound was tested as a 5-hydroxytryptamine 3 receptor antagonist in the rat by assessment of the inhibition of the Bezold-Jarisch effect, when administered intravenously; assay type: functional

Row | Compound | Ki [1] [nM] | ID50 [2] [mg/kg]
1 | CCCOc1ccccc1C(=O)N[C@@H]1CN2CCC1CC2 | 11.2 | 
2 | Nc1ccc2cccc3c2c1C(=O)N(C1CN2CCC1CC2)C3=O (centres undefined) | 0.15 | 
3 | CCOc1ccccc1C(=O)N[C@H]1CN2CCC1CC2 | 100 | 
4 | COc1ccccc1C(=O)N[C@H]1CN2CCC1CC2 | 409 | 
5 | CCOc1ccccc1C(=O)N[C@@H]1CN2CCC1CC2 | 18.9 | 
6 | O=C1c2ccc3ccccc3c2C(=O)N1[C@@H]1CN2CCC1CC2 | 119 | 
7 | COc1ccccc1C(=O)N[C@@H]1CN2CCC1CC2 | 23.4 | 
8 | O=C(N[C@@H]1CN2CCC1CC2)c1cccc2ccccc12 | 32 | 
9 | CCCOc1ccccc1C(=O)N[C@H]1CN2CCC1CC2 | 71.6 | 
10 | O=C1c2ccc3ccccc3c2C(=O)N1[C@H]1CN2CCC1CC2 | 6 | 18.6
11 | O=C(N[C@@H]1CN2CCC1CC2)c1ccccc1 | 147 | 
12 | COc1ccc2ccccc2c1C(=O)NC1CN2CCC1CC2 (centres undefined) | 342 | 
13 | O=C(N[C@H]1CN2CCC1CC2)c1ccccc1 | 1890 | 
